One block for each molecule: values may come before it.
Legend:
Grans = experiment: Peptidases to distinguish leukemia from non-leukemia, granulocytes; assay type: cell-based, human; design: unit not given here
Description: (§1) Artificial intelligence was used to analyze data of cellular enzyme functions, and determine normal and disease states. Peptidases were used to distinguish leukemia from non-leukemia (output pattern). For input patterns lymphocyte and granulocyte cell types were used with aminopeptidases, cathepsins and dipeptidylpeptidase enzyme activities. In this Example, illustrated in Tables 6A-6C, three normals and three leukemia patients were used as known output patterns for the neural network to learn (in practice, the larger the learning set the more accurate unknown prediction will be). Unknowns were then presented to the learned algorithm as shown in the test case examples. Clinical diagnosis was confirmed by physicians. The trained neural network was able to correctly classify the leukemia from the non-leukemia.

Lymphs = experiment: Peptidases to distinguish leukemia from non-leukemia, lymphocytes; assay type: cell-based, human; design: unit not given here
Description: as §1

SMILES: CC(C)[C@H](N)C(=O)N[C@@H](CO)C(=O)Nc1ccc2c(c1)Oc1cc(NC(=O)[C@H](CO)NC(=O)[C@@H](N)C(C)C)ccc1C21OC(=O)c2ccccc21 [VS, (H--L--Val--Ser)2 Rho 110-2TFA]
enzyme activity (Grans; J4 11/21/91 acute leuk.): 0.37
enzyme activity (Grans; J4 12/2/91 AL): 0.14
enzyme activity (Grans; J4 12/3/91 acute leuk.): 0.23
enzyme activity (Grans; J5 11/27/91 AML): 1.13
enzyme activity (Grans; J19 11/27/91 CLL): 2.83
enzyme activity (Grans; J22 12/2/91 AML): 0.22
enzyme activity (Grans; J22 12/9/91 AML): 0.32
enzyme activity (Grans; N99° normal): 0.14
enzyme activity (Grans; N191 normal): 0.64
enzyme activity (Grans; N192 normal): 0.40
enzyme activity (Grans; N193 normal): 0.44
enzyme activity (Grans; N194 normal): 0.29
enzyme activity (Grans; N195 normal): 0.37
enzyme activity (Grans; N197 normal): 0.58
enzyme activity (Grans; N200 normal): 0.24
enzyme activity (Grans; N201 normal): 0.32
enzyme activity (Grans; N202 normal): 0.24
enzyme activity (Grans; N206 normal): 1.03
enzyme activity (Grans; P68 tachycardia): 0.33
enzyme activity (Grans; P69 pancreatic CA): 0.57
enzyme activity (Grans; P70 cirrhosis/hemobilia): 0.26
enzyme activity (Grans; P71 ac. pyelonephritis): 0.69
enzyme activity (Lymphs; J4 11/21/91 acute leuk.): 0.05
enzyme activity (Lymphs; J4 12/2/91 AL): 0.03
enzyme activity (Lymphs; J4 12/3/91 acute leuk.): 0.04
enzyme activity (Lymphs; J5 11/27/91 AML): 0.05
enzyme activity (Lymphs; J19 11/27/91 CLL): 0.01
enzyme activity (Lymphs; J22 12/2/91 AML): 0.01
enzyme activity (Lymphs; J22 12/9/91 AML): 0.04
enzyme activity (Lymphs; N99° normal): 0.03
enzyme activity (Lymphs; N191 normal): 0.14
enzyme activity (Lymphs; N192 normal): 0.08
enzyme activity (Lymphs; N193 normal): 0.09
enzyme activity (Lymphs; N194 normal): 0.07
enzyme activity (Lymphs; N195 normal): 0.06
enzyme activity (Lymphs; N197 normal): 0.11
enzyme activity (Lymphs; N200 normal): 0.06
enzyme activity (Lymphs; N201 normal): 0.07
enzyme activity (Lymphs; N202 normal): 0.04
enzyme activity (Lymphs; N206 normal): 0.28
enzyme activity (Lymphs; P68 tachycardia): 0.05
enzyme activity (Lymphs; P69 pancreatic CA): 0.18
enzyme activity (Lymphs; P70 cirrhosis/hemobilia): 0.04
enzyme activity (Lymphs; P71 ac. pyelonephritis): 0.08

SMILES: CC(C)C[C@H](N)C(=O)NCC(=O)Nc1ccc2c(c1)Oc1cc(NC(=O)CNC(=O)[C@@H](N)CC(C)C)ccc1C21OC(=O)c2ccccc21 [LG]
enzyme activity (Grans; J4 11/21/91 acute leuk.): 0.85
enzyme activity (Grans; J4 12/2/91 AL): 0.79
enzyme activity (Grans; J4 12/3/91 acute leuk.): 1.06
enzyme activity (Grans; J5 11/27/91 AML): 2.51
enzyme activity (Grans; J19 11/27/91 CLL): 36.35
enzyme activity (Grans; J22 12/2/91 AML): 1.56
enzyme activity (Grans; J22 12/9/91 AML): 1.94
enzyme activity (Grans; N99° normal): 2.022
enzyme activity (Grans; N191 normal): 5.37
enzyme activity (Grans; N192 normal): 6.78
enzyme activity (Grans; N193 normal): 3.65
enzyme activity (Grans; N194 normal): 3.52
enzyme activity (Grans; N195 normal): 4.11
enzyme activity (Grans; N197 normal): 4.41
enzyme activity (Grans; N200 normal): 3.40
enzyme activity (Grans; N201 normal): 3.14
enzyme activity (Grans; N202 normal): 2.70
enzyme activity (Grans; N206 normal): 6.01
enzyme activity (Grans; P68 tachycardia): 2.52
enzyme activity (Grans; P69 pancreatic CA): 3.53
enzyme activity (Grans; P70 cirrhosis/hemobilia): 2.20
enzyme activity (Grans; P71 ac. pyelonephritis): 4.00
enzyme activity (Lymphs; J4 11/21/91 acute leuk.): 0.16
enzyme activity (Lymphs; J4 12/2/91 AL): 0.18
enzyme activity (Lymphs; J4 12/3/91 acute leuk.): 0.19
enzyme activity (Lymphs; J5 11/27/91 AML): 0.23
enzyme activity (Lymphs; J19 11/27/91 CLL): 0.02
enzyme activity (Lymphs; J22 12/2/91 AML): 0.02
enzyme activity (Lymphs; J22 12/9/91 AML): 0.61
enzyme activity (Lymphs; N99° normal): 0.85
enzyme activity (Lymphs; N191 normal): 2.42
enzyme activity (Lymphs; N192 normal): 3.45
enzyme activity (Lymphs; N193 normal): 1.56
enzyme activity (Lymphs; N194 normal): 2.06
enzyme activity (Lymphs; N195 normal): 1.93
enzyme activity (Lymphs; N197 normal): 1.79
enzyme activity (Lymphs; N200 normal): 1.55
enzyme activity (Lymphs; N201 normal): 1.57
enzyme activity (Lymphs; N202 normal): 1.28
enzyme activity (Lymphs; N206 normal): 3.12
enzyme activity (Lymphs; P68 tachycardia): 0.78
enzyme activity (Lymphs; P69 pancreatic CA): 2.00
enzyme activity (Lymphs; P70 cirrhosis/hemobilia): 0.79
enzyme activity (Lymphs; P71 ac. pyelonephritis): 0.68

enzyme activity (Grans; J4 11/21/91 acute leuk.): 10.75
enzyme activity (Grans; J4 12/2/91 AL): 11.08
enzyme activity (Grans; J4 12/3/91 acute leuk.): 1.28
enzyme activity (Grans; J5 11/27/91 AML): 8.95
enzyme activity (Grans; J19 11/27/91 CLL): 1.39
enzyme activity (Grans; J22 12/2/91 AML): 13.98
enzyme activity (Grans; J22 12/9/91 AML): 11.52
enzyme activity (Grans; N99° normal): 13.41
enzyme activity (Grans; N191 normal): 11.20
enzyme activity (Grans; N192 normal): 11.22
enzyme activity (Grans; N193 normal): 8.87
enzyme activity (Grans; N194 normal): 12.49
enzyme activity (Grans; N195 normal): 13.31
enzyme activity (Grans; N197 normal): 15.85
enzyme activity (Grans; N200 normal): 12.74
enzyme activity (Grans; N201 normal): 15.92
enzyme activity (Grans; N202 normal): 14.44
enzyme activity (Grans; N206 normal): 17.96
enzyme activity (Grans; P68 tachycardia): 16.08
enzyme activity (Grans; P69 pancreatic CA): 16.21
enzyme activity (Grans; P70 cirrhosis/hemobilia): 16.42
enzyme activity (Grans; P71 ac. pyelonephritis): 11.07
enzyme activity (Lymphs; J4 11/21/91 acute leuk.): 2.72
enzyme activity (Lymphs; J4 12/2/91 AL): 3.80
enzyme activity (Lymphs; J4 12/3/91 acute leuk.): 4.17
enzyme activity (Lymphs; J5 11/27/91 AML): 3.40
enzyme activity (Lymphs; J19 11/27/91 CLL): 1.73
enzyme activity (Lymphs; J22 12/2/91 AML): 1.73
enzyme activity (Lymphs; J22 12/9/91 AML): 3.01
enzyme activity (Lymphs; N99° normal): 5.55
enzyme activity (Lymphs; N191 normal): 4.14
enzyme activity (Lymphs; N192 normal): 3.00
enzyme activity (Lymphs; N193 normal): 3.00
enzyme activity (Lymphs; N194 normal): 5.22
enzyme activity (Lymphs; N195 normal): 5.24
enzyme activity (Lymphs; N197 normal): 5.97
enzyme activity (Lymphs; N200 normal): 5.38
enzyme activity (Lymphs; N201 normal): 6.53
enzyme activity (Lymphs; N202 normal): 6.61
enzyme activity (Lymphs; N206 normal): 7.09
enzyme activity (Lymphs; P68 tachycardia): 5.92
enzyme activity (Lymphs; P69 pancreatic CA): 6.80
enzyme activity (Lymphs; P70 cirrhosis/hemobilia): 6.68
enzyme activity (Lymphs; P71 ac. pyelonephritis): 3.55
SMILES: NCC(=O)N1CCC[C@H]1C(=O)Nc1ccc2c(c1)Oc1cc(NC(=O)[C@@H]3CCCN3C(=O)CN)ccc1C21OC(=O)c2ccccc21 [GP]

SMILES: NCCCC[C@H](N)C(=O)Nc1ccc2c(c1)Oc1cc(NC(=O)[C@@H](N)CCCCN)ccc1C21OC(=O)c2ccccc21 [LYS, (H--L--Lys)2 Rho 110-4TFA]
enzyme activity (Grans; J4 11/21/91 acute leuk.): 3.01
enzyme activity (Grans; J4 12/2/91 AL): 4.09
enzyme activity (Grans; J4 12/3/91 acute leuk.): 3.19
enzyme activity (Grans; J5 11/27/91 AML): 14.86
enzyme activity (Grans; J19 11/27/91 CLL): 4.41
enzyme activity (Grans; J22 12/2/91 AML): 1.41
enzyme activity (Grans; J22 12/9/91 AML): 1.90
enzyme activity (Grans; N99° normal): 0.95
enzyme activity (Grans; N191 normal): 1.20
enzyme activity (Grans; N192 normal): 1.20
enzyme activity (Grans; N193 normal): 1.43
enzyme activity (Grans; N194 normal): 1.56
enzyme activity (Grans; N195 normal): 2.53
enzyme activity (Grans; N197 normal): 1.59
enzyme activity (Grans; N200 normal): 1.46
enzyme activity (Grans; N201 normal): 2.06
enzyme activity (Grans; N202 normal): 13.22
enzyme activity (Grans; N206 normal): 3.11
enzyme activity (Grans; P68 tachycardia): 3.09
enzyme activity (Grans; P69 pancreatic CA): 2.14
enzyme activity (Grans; P70 cirrhosis/hemobilia): 2.33
enzyme activity (Grans; P71 ac. pyelonephritis): 4.17
enzyme activity (Lymphs; J4 11/21/91 acute leuk.): 0.77
enzyme activity (Lymphs; J4 12/2/91 AL): 1.81
enzyme activity (Lymphs; J4 12/3/91 acute leuk.): 1.64
enzyme activity (Lymphs; J5 11/27/91 AML): 5.71
enzyme activity (Lymphs; J19 11/27/91 CLL): 0.98
enzyme activity (Lymphs; J22 12/2/91 AML): 0.74
enzyme activity (Lymphs; J22 12/9/91 AML): 1.20
enzyme activity (Lymphs; N99° normal): 0.33
enzyme activity (Lymphs; N191 normal): 1.18
enzyme activity (Lymphs; N192 normal): 0.56
enzyme activity (Lymphs; N193 normal): 0.52
enzyme activity (Lymphs; N194 normal): 0.93
enzyme activity (Lymphs; N195 normal): 1.07
enzyme activity (Lymphs; N197 normal): 0.70
enzyme activity (Lymphs; N200 normal): 0.90
enzyme activity (Lymphs; N201 normal): 1.05
enzyme activity (Lymphs; N202 normal): 0.71
enzyme activity (Lymphs; N206 normal): 1.65
enzyme activity (Lymphs; P68 tachycardia): 1.51
enzyme activity (Lymphs; P69 pancreatic CA): 1.22
enzyme activity (Lymphs; P70 cirrhosis/hemobilia): 1.02
enzyme activity (Lymphs; P71 ac. pyelonephritis): 0.91
